PubChem BioAssay (NCI)
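Briefly, cells in 96-well plates were exposed to five compound concentrations for 48 h, and endpoints were estimated by linear interpolation. TGI is the concentration that stops growth completely.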

Legend:
Experiment in all cases: DTP human tumour cell line panel, 48 h
NCI-H226 lung = test system: NCI-H226 lung
K-562 leukemia = test system: K-562 leukemia
OVCAR-4 ovarian = test system: OVCAR-4 ovarian
OVCAR-5 ovarian = test system: OVCAR-5 ovarian
SNB-19 CNS = test system: SNB-19 CNS
HOP-62 NSCLC = test system: HOP-62 NSCLC
SNB-78 CNS = test system: SNB-78 CNS
SF-268 CNS = test system: SF-268 CNS
XF 498 CNS = test system: XF 498 CNS
RXF 393 renal = test system: RXF 393 renal
786-0 renal = test system: 786-0 renal
DMS 114 small cell lung = test system: DMS 114 small cell lung
CCRF-CEM leukemia = test system: CCRF-CEM leukemia
IGROV1 ovarian = test system: IGROV1 ovarian
UACC-62 melanoma = test system: UACC-62 melanoma
HOP-18 NSCLC = test system: HOP-18 NSCLC
LOX IMVI melanoma = test system: LOX IMVI melanoma
CAKI-1 renal = test system: CAKI-1 renal
HCT-116 colon = test system: HCT-116 colon
SK-MEL-2 melanoma = test system: SK-MEL-2 melanoma
NCI-H460 lung = test system: NCI-H460 lung
RPMI-8226 leukemia = test system: RPMI-8226 leukemia
HCT-15 colon = test system: HCT-15 colon
M19-MEL melanoma = test system: M19-MEL melanoma
DLD-1 colon = test system: DLD-1 colon
HCC-2998 colon = test system: HCC-2998 colon
LXFL 529 NSCLC = test system: LXFL 529 NSCLC
OVCAR-3 ovarian = test system: OVCAR-3 ovarian
UACC-257 melanoma = test system: UACC-257 melanoma
SN12C renal = test system: SN12C renal
MALME-3M melanoma = test system: MALME-3M melanoma
TK-10 renal = test system: TK-10 renal
EKVX NSCLC = test system: EKVX NSCLC
KM20L2 colon = test system: KM20L2 colon
KM12 colon = test system: KM12 colon
SF-295 CNS = test system: SF-295 CNS
SK-MEL-5 melanoma = test system: SK-MEL-5 melanoma
DMS 273 small cell lung = test system: DMS 273 small cell lung
MOLT-4 leukemia = test system: MOLT-4 leukemia
A498 renal = test system: A498 renal
ACHN renal = test system: ACHN renal
COLO 205 colon = test system: COLO 205 colon
SF-539 CNS = test system: SF-539 CNS
UO-31 renal = test system: UO-31 renal
SR leukemia = test system: SR leukemia
SNB-75 CNS = test system: SNB-75 CNS
SK-MEL-28 melanoma = test system: SK-MEL-28 melanoma
U251 CNS = test system: U251 CNS
HL-60(TB) leukemia = test system: HL-60(TB) leukemia
M14 melanoma = test system: M14 melanoma
OVCAR-8 ovarian = test system: OVCAR-8 ovarian
SW-620 colon = test system: SW-620 colon
NCI-H522 lung = test system: NCI-H522 lung
SK-OV-3 ovarian = test system: SK-OV-3 ovarian
A549 NSCLC = test system: A549 NSCLC
HOP-92 NSCLC = test system: HOP-92 NSCLC
NCI-H23 lung = test system: NCI-H23 lung
HT29 colon = test system: HT29 colon

In the case of `Cc1cc2c(cc1C)NC(=O)C(NC(=O)/C=C/c1ccccc1)C=N2` (centres undefined), the TGI (NCI-H226 lung) is reported as over 100 µM, the TGI (K-562 leukemia) is reported as 62.2 µM and the TGI (OVCAR-4 ovarian) is reported as over 100 µM. The TGI (OVCAR-5 ovarian) was over 100 µM, the TGI (SNB-19 CNS) was over 100 µM and the TGI (HOP-62 NSCLC) was over 100 µM. It also gave a TGI (SNB-78 CNS) of over 100 µM, a TGI (SF-268 CNS) of over 100 µM and a TGI (XF 498 CNS) of 99.6 µM. For the same molecule, the TGI (RXF 393 renal) was 59.7 µM, the TGI (786-0 renal) was over 100 µM and the TGI (DMS 114 small cell lung) was 31.1 µM. It also gave a TGI (CCRF-CEM leukemia) of 26 µM, a TGI (IGROV1 ovarian) of over 100 µM and a TGI (UACC-62 melanoma) of over 100 µM. It also gave a TGI (HOP-18 NSCLC) of over 100 µM, a TGI (LOX IMVI melanoma) of 55.3 µM and a TGI (CAKI-1 renal) of over 100 µM. It also gave a TGI (HCT-116 colon) of 50.8 µM, a TGI (SK-MEL-2 melanoma) of 84.4 µM and a TGI (NCI-H460 lung) of over 100 µM. It also gave a TGI (RPMI-8226 leukemia) of 75.9 µM, a TGI (HCT-15 colon) of 40.4 µM and a TGI (M19-MEL melanoma) of over 100 µM. The TGI (DLD-1 colon) was over 100 µM, the TGI (HCC-2998 colon) was over 100 µM and the TGI (LXFL 529 NSCLC) was over 100 µM. The TGI (OVCAR-3 ovarian) was 55.2 µM, the TGI (UACC-257 melanoma) was 82.9 µM and the TGI (SN12C renal) was over 100 µM. For the same molecule, the TGI (MALME-3M melanoma) was over 100 µM, the TGI (TK-10 renal) was over 100 µM and the TGI (EKVX NSCLC) was over 100 µM. The TGI (KM20L2 colon) was over 100 µM, the TGI (KM12 colon) was 55.4 µM and the TGI (SF-295 CNS) was over 100 µM. For the same molecule, the TGI (SK-MEL-5 melanoma) was over 100 µM, the TGI (DMS 273 small cell lung) was over 100 µM and the TGI (MOLT-4 leukemia) was 57.7 µM. The TGI (A498 renal) was over 100 µM, the TGI (ACHN renal) was over 100 µM and the TGI (COLO 205 colon) was 34.6 µM. The TGI (SF-539 CNS) was over 100 µM, the TGI (UO-31 renal) was over 100 µM and the TGI (SR leukemia) was 58 µM. It also gave a TGI (SNB-75 CNS) of over 100 µM, a TGI (SK-MEL-28 melanoma) of over 100 µM and a TGI (U251 CNS) of 70.2 µM. The TGI (HL-60(TB) leukemia) was 43.5 µM, the TGI (M14 melanoma) was over 100 µM and the TGI (OVCAR-8 ovarian) was over 100 µM. The TGI (SW-620 colon) was 19.6 µM, the TGI (NCI-H522 lung) was 66 µM and the TGI (SK-OV-3 ovarian) was over 100 µM. It also gave a TGI (A549 NSCLC) of over 100 µM.
For `C=CC1(C)CCC(C(C)C(=O)C(C=C(C)C)OC(C)=O)C12C(=O)Oc1ccccc1C2=O` (centres undefined), the TGI (NCI-H226 lung) was over 100 µM, the TGI (K-562 leukemia) was over 100 µM and the TGI (OVCAR-4 ovarian) was over 100 µM. For the same molecule, the TGI (HOP-92 NSCLC) was over 100 µM, the TGI (SNB-19 CNS) was over 100 µM and the TGI (HOP-62 NSCLC) was over 100 µM. It also gave a TGI (SNB-78 CNS) of over 100 µM, a TGI (SF-268 CNS) of over 100 µM and a TGI (NCI-H23 lung) of over 100 µM. The TGI (XF 498 CNS) was over 100 µM, the TGI (RXF 393 renal) was over 100 µM and the TGI (786-0 renal) was over 100 µM. For the same molecule, the TGI (DMS 114 small cell lung) was over 100 µM, the TGI (HT29 colon) was over 100 µM and the TGI (CCRF-CEM leukemia) was over 100 µM. The TGI (IGROV1 ovarian) was over 100 µM, the TGI (UACC-62 melanoma) was over 100 µM and the TGI (HOP-18 NSCLC) was over 100 µM. For the same molecule, the TGI (LOX IMVI melanoma) was over 100 µM, the TGI (HCT-116 colon) was over 100 µM and the TGI (SK-MEL-2 melanoma) was over 100 µM. It also gave a TGI (NCI-H460 lung) of over 100 µM, a TGI (RPMI-8226 leukemia) of 68.2 µM and a TGI (HCT-15 colon) of over 100 µM. For the same molecule, the TGI (M19-MEL melanoma) was over 100 µM, the TGI (DLD-1 colon) was over 100 µM and the TGI (HCC-2998 colon) was over 100 µM. It also gave a TGI (LXFL 529 NSCLC) of over 100 µM, a TGI (OVCAR-3 ovarian) of over 100 µM and a TGI (UACC-257 melanoma) of over 100 µM. It also gave a TGI (SN12C renal) of over 100 µM, a TGI (MALME-3M melanoma) of over 100 µM and a TGI (TK-10 renal) of over 100 µM. It also gave a TGI (EKVX NSCLC) of over 100 µM, a TGI (KM20L2 colon) of over 100 µM and a TGI (KM12 colon) of over 100 µM. It also gave a TGI (SF-295 CNS) of over 100 µM, a TGI (DMS 273 small cell lung) of over 100 µM and a TGI (MOLT-4 leukemia) of 78.7 µM. For the same molecule, the TGI (ACHN renal) was over 100 µM, the TGI (COLO 205 colon) was over 100 µM and the TGI (SF-539 CNS) was over 100 µM. For the same molecule, the TGI (UO-31 renal) was over 100 µM, the TGI (SR leukemia) was over 100 µM and the TGI (SNB-75 CNS) was over 100 µM. It also gave a TGI (SK-MEL-28 melanoma) of over 100 µM, a TGI (U251 CNS) of over 100 µM and a TGI (HL-60(TB) leukemia) of 64.6 µM. It also gave a TGI (M14 melanoma) of over 100 µM, a TGI (OVCAR-8 ovarian) of over 100 µM and a TGI (SW-620 colon) of over 100 µM. It also gave a TGI (NCI-H522 lung) of over 100 µM, a TGI (SK-OV-3 ovarian) of over 100 µM and a TGI (A549 NSCLC) of over 100 µM.
